Experimental findings from US7858620B2, “Cyanoisoquinoline” (H. Lundbeck A/S, priority 2007, dated 2010) are described below.

As usually defined, the IC50 is the concentration at which inhibition is half-maximal. A high value points to weaker potency in that assay.

Each structure is given as a SMILES string.

For the test, the target named is T1, PDE10A enzyme (Homo sapiens, UniProt Q9Y233).
T1 construct: made in house; host or cells: E. coli BL21(DE3)
T1 sequence (Q9Y233 716-1055): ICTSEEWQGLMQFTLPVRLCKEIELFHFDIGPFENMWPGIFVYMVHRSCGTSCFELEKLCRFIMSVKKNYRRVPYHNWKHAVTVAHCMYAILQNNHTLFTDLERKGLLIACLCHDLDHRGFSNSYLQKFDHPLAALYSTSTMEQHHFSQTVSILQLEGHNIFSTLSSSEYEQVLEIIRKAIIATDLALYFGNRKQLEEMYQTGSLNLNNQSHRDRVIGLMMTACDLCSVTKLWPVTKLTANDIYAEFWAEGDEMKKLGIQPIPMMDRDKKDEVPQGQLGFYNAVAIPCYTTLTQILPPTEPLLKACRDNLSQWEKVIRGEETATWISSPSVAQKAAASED
As to the kind of experiment: PDE10A inhibition assay, SPA. The class given is biochemical. Conditions: column head 2,1334003; unit inferred, nM. The procedure: Active PDE10A enzyme is prepared in a number of ways for use in PDE assays (Loughney, K. et al. Gene 1999, 234, 109-117; Fujishige, K. et al. Eur J Biochem. 1999, 266, 1118-1127 and Soderling, S. et al. Proc. Natl. Acad. Sci. 1999, 96, 7071-7076). PDE10A can be expressed as full-length proteins or as truncated proteins, as long as they express the catalytic domain. PDE10A can be prepared in different cell types, for example insect cells or E. coli. An example of a method to obtain catalytically active PDE10A is as follows: The catalytic domain of human PDE10A (amino acids 440-779 from the sequence with accession number NP 006652) is amplified from total human brain total RNA by standard RT-PCR and is cloned into the BamH1 and Xho1 sites of the pET28a vector (Novagen). Expression in coli is performed according to standard protocols. Briefly, the expression plasmids are transformed into the BL21(DE3) E. coli strain, and 50 mL cultures inoculated with the cells allowed to grow to an OD600 of 0.4-0.6 before protein expression is induced with 0.5 mM IPTG. Following induction, the cells are incubated overnight at room temperature, after which the cells are collected by centrifugation. Cells expressing PDE10A are resuspended in 12 mL (50 mM TRIS-HCl-pH8.0, 1 mM MgCl2 and protease inhibitors). The cells are lysed by sonication, and after all cells are lysed, TritonX100 is added according to Novagen protocols.
PDE10A and Pde3A assays can for example be performed as follows: PDE10A and Pde3A assays are performed in 60 uL samples containing a fixed amount of the relevant PDE enzyme (sufficient to convert 20-25% of the cyclic nucleotide substrate), a buffer (50 mM HEPES7.6; 10 mM MgCl2; 0.02% Tween20), 0.1 mg/ml BSA, 225 pCi of ^3H-labelled cyclic nucleotide substrate, tritium labeled cAMP to a final concentration of 5 nM and varying amounts of inhibitors. Reactions are initiated by addition of the cyclic nucleotide substrate, and reactions are allowed to proceed for one hr at room temperature before being terminated through mixing with 15 uL 8 mg/mL yttrium silicate SPA beads (Amersham). The beads are allowed to settle for one hr in the dark before the plates are counted in a Wallac 1450 Microbeta counter. The measured signal can be converted to activity relative to an uninhibited control (100%) and IC50 values can be calculated using the Xlfit extension to EXCEL.
For the molecule `COc1cccc(C2CN(c3ncc(C#N)c4cc(OC)c(OC)cc34)CCN2)c1` (single isomer, unassigned; (+)) [Compound 23, (+)-6,7-Dimethoxy-1-[3-(3-methoxy-phenyl)-piperazin-1-yl]-isoquinoline-4-carbonitrile], inhibition was half-maximal at 1300 nM (IC50).

Take `COc1cccc(C2CN(c3ncc(C#N)c4cc(OC)c(OC)cc34)CCN2)c1` (single isomer, unassigned; (-)) [Compound 24, (−)-6,7-Dimethoxy-1-[3-(3-methoxy-phenyl)-piperazin-1-yl]-isoquinoline-4-carbonitrile]: the midpoint of inhibition, the IC50, lay at 27 nM.

The molecule `COc1cc2c(C#N)cnc(N3CCNC(c4ccc(F)cc4)C3)c2cc1OC` (centres unmarked) [Compound 1, 1-[3-(4-Fluoro-phenyl)-piperazin-1-yl]-6,7-dimethoxy-isoquinoline-4-carbonitrile] yielded an IC50 of 80 nM. Under `COc1cccc(C2CN(c3ncc(C#N)c4cc(OC)c(OC)cc34)CCN2)c1` (centres unmarked) [Compound 2, 6,7-Dimethoxy-1-[3-(3-methoxy-phenyl)-piperazin-1-yl]-isoquinoline-4-carbonitrile] stands 320 nM; under `COc1cccc(C2CN(c3nc(C)c(C#N)c4cc(OC)c(OC)cc34)CCN2)c1` (centres unmarked) [Compound 3, 6,7-Dimethoxy-1-[3-(3-methoxy-phenyl)-piperazin-1-yl]-3-methyl-isoquinoline-4-carbonitrile], 240 nM; under `COc1cc2c(C#N)cnc(N3CCNC(c4cccc5ccccc45)C3)c2cc1OC` (centres unmarked) [Compound 4, 6,7-Dimethoxy-1-(3-naphthalen-1-yl-piperazin-1-yl)-isoquinoline-4-carbonitrile], 78 nM. On to `COc1ccc(C2CN(c3ncc(C#N)c4cc(OC)c(OC)cc34)CCN2)cc1` (centres unmarked) [Compound 5, 6,7-Dimethoxy-1-[3-(4-methoxy-phenyl)-piperazin-1-yl]-isoquinoline-4-carbonitrile], for which half-maximal inhibition (IC50) was put at 54 nM. The molecule `COc1cc2c(C#N)cnc(N3CCNC(c4ccccc4OC)C3)c2cc1OC` (centres unmarked) [Compound 6, 6,7-Dimethoxy-1-[3-(2-methoxy-phenyl)-piperazin-1-yl]-isoquinoline-4-carbonitrile] came in with a 50% inhibitory concentration (IC50) of 420 nM. As to `COc1cc2c(C#N)cnc(N3CCNC(c4ccc(N(C)C)cc4)C3)c2cc1OC` (centres unmarked) [Compound 7, 1-[3-(4-Dimethylamino-phenyl)-piperazin-1-yl]-6,7-dimethoxy-isoquinoline-4-carbonitrile], 76 nM corresponded to half-maximal inhibition (IC50). The molecule `COc1cc2c(C#N)cnc(N3CCNC(c4ccc5c(c4)OCO5)C3)c2cc1OC` (centres unmarked) [Compound 8, 1-(3-Benzo[1,3]dioxol-5-yl-piperazin-1-yl)-6,7-dimethoxy-isoquinoline-4-carbonitrile] gave an IC50 of 81 nM.

With `COc1cc2c(C#N)cnc(N3CCNC(c4cccc([N+](=O)[O-])c4)C3)c2cc1OC` (centres unmarked) [Compound 9, 6,7-Dimethoxy-1-[3-(3-nitro-phenyl)-piperazin-1-yl]-isoquinoline-4-carbonitrile], the concentration for half-maximal inhibition (IC50) worked out at 120 nM. In turn, `COc1cc2c(C#N)cnc(N3CCNC(c4ccc5ccccc5c4)C3)c2cc1OC` (centres unmarked) [Compound 10, 6,7-Dimethoxy-1-(3-naphthalen-2-yl-piperazin-1-yl)-isoquinoline-4-carbonitrile] gave an IC50 of 73 nM. In the case of `COc1cc(OC)cc(C2CN(c3ncc(C#N)c4cc(OC)c(OC)cc34)CCN2)c1` (centres unmarked) [Compound 11, 1-[3-(3,5-Dimethoxy-phenyl)-piperazin-1-yl]-6,7-dimethoxy-isoquinoline-4-carbonitrile], the IC50 came out at 41 nM. For `COc1ccc(OC)c(C2CN(c3ncc(C#N)c4cc(OC)c(OC)cc34)CCN2)c1` (centres unmarked) [Compound 12, 1-[3-(2,5-Dimethoxy-phenyl)-piperazin-1-yl]-6,7-dimethoxy-isoquinoline-4-carbonitrile], the IC50 stood at 42 nM. As to `COc1cc2c(C#N)cnc(N3CCNC(c4ccc(C(F)(F)F)cc4)C3)c2cc1OC` (centres unmarked) [Compound 13, 6,7-Dimethoxy-1-[3-(4-trifluoromethyl-phenyl)-piperazin-1-yl]-isoquinoline-4-carbonitrile], the midpoint of inhibition, the IC50, lay at 160 nM. Molecule `COc1cc2c(C#N)cnc(N3CCNC(c4cc(Cl)ccc4Cl)C3)c2cc1OC` (centres unmarked) [Compound 14, 1-[3-(2,5-Dichloro-phenyl)-piperazin-1-yl]-6,7-dimethoxy-isoquinoline-4-carbonitrile] gave a 50% inhibitory concentration (IC50) of 650 nM.

With `COc1cc2c(C#N)cnc(N3CCNC(c4ccc(Cl)cc4Cl)C3)c2cc1OC` (centres unmarked) [Compound 15, 1-[3-(2,4-Dichloro-phenyl)-piperazin-1-yl]-6,7-dimethoxy-isoquinoline-4-carbonitrile], half-maximal inhibition (IC50) required 520 nM.

Molecule `COc1cc2c(C#N)cnc(N3CCNC(c4ccc(N5CCOCC5)cc4)C3)c2cc1OC` (centres unmarked) [Compound 16, 6,7-Dimethoxy-1-[3-(4-morpholin-4-yl-phenyl)-piperazin-1-yl]-isoquinoline-4-carbonitrile] gave an IC50 of 76 nM.

Turning to `COc1cc2c(C#N)cnc(N3CCNC(c4cc(F)c(Cl)cc4Cl)C3)c2cc1OC` (centres unmarked) [Compound 17, 1-[3-(2,4-Dichloro-5-fluoro-phenyl)-piperazin-1-yl]-6,7-dimethoxy-isoquinoline-4-carbonitrile], the IC50 worked out at 1000 nM. For `COc1ccc(C2CN(c3ncc(C#N)c4cc(OC)c(OC)cc34)CCO2)cc1` (centres unmarked) [Compound 18, 6,7-Dimethoxy-1-[2-(4-methoxy-phenyl)-morpholin-4-yl]-isoquinoline-4-carbonitrile] the value was 97 nM; for `COc1cc2c(C#N)cnc(N3CCOC(c4ccc(C)cc4)C3)c2cc1OC` (centres unmarked) [Compound 19, 6,7-Dimethoxy-1-(2-p-tolyl-morpholin-4-yl)-isoquinoline-4-carbonitrile], 580 nM.

With `COc1cc2c(C#N)cnc(N3CCOC(c4ccc(Cl)cc4)C3)c2cc1OC` (centres unmarked) [Compound 20, 1-[2-(4-Chloro-phenyl)-morpholin-4-yl]-6,7-dimethoxy-isoquinoline-4-carbonitrile], it took 800 nM to reach half-maximal inhibition (IC50).

As to `COc1cc2c(C#N)cnc(N3CCOC(c4ccccc4Cl)C3)c2cc1OC` (centres unmarked) [Compound 21, 1-[2-(2-Chloro-phenyl)-morpholin-4-yl]-6,7-dimethoxy-isoquinoline-4-carbonitrile], the IC50 amounted to 530 nM. For `COc1cc2c(C#N)cnc(N3CCOC(c4ccc(C(F)(F)F)cc4)C3)c2cc1OC` (centres unmarked) [Compound 22, 6,7-Dimethoxy-1-[2-(4-trifluoromethyl-phenyl)-morpholin-4-yl]-isoquinoline-4-carbonitrile], the IC50 turned out to be 1600 nM.

On to `COc1cc2c(C#N)cnc(N3CCNC(c4ccc(C)cc4)C3)c2cc1OC` (centres unmarked) [Compound 25, 6,7-Dimethoxy-1-(3-p-tolyl-piperazin-1-yl)-isoquinoline-4-carbonitrile], for which the 50% inhibitory concentration (IC50) stood at 300 nM.

For the molecule `COc1cc2c(C#N)cnc(N3CCNC(c4cccc(Cl)c4)C3)c2cc1OC` (centres unmarked) [Compound 26, 1-[3-(3-Chloro-phenyl)-piperazin-1-yl]-6,7-dimethoxy-isoquinoline-4-carbonitrile], half-maximal inhibition (IC50) required 390 nM. Turning to `COc1cc2c(C#N)cnc(N3CCNC(c4ccc(Br)cc4)C3)c2cc1OC` (centres unmarked) [Compound 27, 1-[3-(4-Bromo-phenyl)-piperazin-1-yl]-6,7-dimethoxy-isoquinoline-4-carbonitrile], the IC50 worked out at 510 nM. Turning to `COc1ccc2cc(C3CN(c4ncc(C#N)c5cc(OC)c(OC)cc45)CCN3)ccc2c1` (centres unmarked) [Compound 28, 6,7-Dimethoxy-1-[3-(6-methoxy-naphthalen-2-yl)-piperazin-1-yl]-isoquinoline-4-carbonitrile], half-maximal inhibition (IC50) was put at 330 nM. The molecule `COc1cc2c(C#N)cnc(N3CCSC(c4ccccc4)C3)c2cc1OC` (centres unmarked) [Compound 29, 6,7-Dimethoxy-1-(2-phenyl-thiomorpholin-4-yl)-isoquinoline-4-carbonitrile] came in with an IC50 of 2500 nM.

In turn, `COc1cc2c(C#N)cnc(N3CCNC(c4ccc(Cl)cc4)C3)c2cc1OC` (centres unmarked) [Compound 30, 1-[3-(4-Chloro-phenyl)-piperazin-1-yl]-6,7-dimethoxy-isoquinoline-4-carbonitrile] came in with a 50% inhibitory concentration (IC50) of 700 nM. `COc1cc2c(N3CCNC(c4ccc(C)cc4)C3)nc(C)c(C#N)c2cc1OC` (centres unmarked) [Compound 31, 6,7-Dimethoxy-3-methyl-1-(3-p-tolyl-piperazin-1-yl)-isoquinoline-4-carbonitrile]: half-maximal inhibition (IC50) was put at 1000 nM. In turn, `COc1ccc(C2CN(c3nc(C)c(C#N)c4cc(OC)c(OC)cc34)CCN2)cc1` (centres unmarked) [Compound 32, 6,7-Dimethoxy-1-[3-(4-methoxy-phenyl)-piperazin-1-yl]-3-methyl-isoquinoline-4-carbonitrile] gave a 50% inhibitory concentration (IC50) of 290 nM.
